Assay results: article PMC10892871 (Viruses, 2024)
Values joined by “and” are separate entries in the source; they are usually repeats but may differ in a detail not shown here. Identical values can stand only once.

Tested on: Omicron BQ.1.1 SARS-CoV-2 variant
Format: cell-based

O=c1nc(NO)ccn1[C@@H]1O[C@H](CO)[C@@H](O)[C@H]1O [EIDD-1931, reference compound]
IC50 (read-out: IC50 vs. BQ.1.1 Mean ± SD): 1590 nM and 1600 nM
IC90 (read-out: IC90 vs. BQ.1.1 Mean ± SD): 1800 ± 700 nM
